The subject of test [1] is IL-17-induced GROα secretion from HT-29 cells. The test can be described thus: GROα release assay in human colorectal adenocarcinoma epithelial cell (HT-29, ELISA). The format is cell-based. To be noted: Homo sapiens, HT-29, 48 h, 10 ng/mL IL-17A, highest concentration 10 μM, read-out: Cellular assay HT29 cell/CXCL1 IC50. Put shortly:
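HT-29 cells were exposed 48 h at 37°C to IL-17A (final 10 ng/mL) preincubated 15 min with compound (4-fold dilutions, top 10 μM). Secreted GROα was quantified by ELISA against a standard curve, and IC50 obtained by four-parameter fitting.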
In general terms: In an ELISA, binding on a coated surface is turned into a signal by an enzyme label.

For test [2], the target named is human IL-17A / human IL-17RA (Homo sapiens (Human), UniProt Q16552). The test can be described thus: Human IL-17A biochemical assay (HTRF, blocking of IL-17A binding to IL-17RA). As to conditions: 0.4 nM IL-17A, 0.3 nM IL-17RA, max compound concentration 10 uM. In a few lines:
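HTRF competition: 0.4 nM recombinant human IL-17A pre-incubated 3 h at room temperature with compound (top 10 uM, 2.7-fold, 10 points) in HEPES pH 7.5 buffer, then 0.3 nM IL-17RA added for 1 h, then anti-6His-Tb/anti-human IgG-XL665 detection for 1 h.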
In general terms: Time-resolved FRET reads energy transfer from a long-lived donor to a nearby acceptor.

Structures are written as SMILES.

Chain of human IL-17A / human IL-17RA (Q16552 24-155): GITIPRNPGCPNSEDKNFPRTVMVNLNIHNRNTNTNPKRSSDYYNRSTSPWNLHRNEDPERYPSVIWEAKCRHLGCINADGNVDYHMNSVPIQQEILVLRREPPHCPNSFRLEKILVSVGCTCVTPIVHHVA

As to `CC[C@H]1CN(C2(C(=O)NC)Cc3ccc(NC(=O)[C@@H](NC(=O)c4ccnn4C)C4CCCCC4)cc3C2)C(=O)N1` (stereo partly drawn) [Example 18, N-((1S)-1-cyclohexyl-2-((2-((S)-4-ethyl-2-oxoimidazolidin-1-yl)-2-(methylcarbamoyl)-2,3-dihydro-1H-inden-5-yl)amino)-2-oxoethyl)-1-methyl-1H-pyrazole-5-carboxamide], the figures for the IC50 in test [1] and in test [2] were 2550 nM and 1000 nM, respectively.
For `CNC(=O)C1(N2CC(C)(Cc3ccc(OC)cc3)CNC2=O)Cc2ccc(NC(=O)[C@@H](NC(=O)c3ccnn3C)C3CCCCC3)cc2C1` (stereo partly drawn) [Example 100, N-((1S)-1-cyclohexyl-2-((2-(5-(4-methoxybenzyl)-5-methyl-2-oxotetrahydropyrimidin-1(2H)-yl)-2-(methylcarbamoyl)-2,3-dihydro-1H-inden-5-yl)amino)-2-oxoethyl)-1-methyl-1H-pyrazole-5-carboxamide] the same measures were 2560 nM and 886 nM.
The matching figures for `CNC(=O)C1(N2C[C@@H](C(C)C)NC2=O)Cc2ccc(NC(=O)[C@@H](NC(=O)c3ccnn3C)C3CCCCCC3)cc2C1` (stereo partly drawn) [Example 47, N-((1S)-1-cycloheptyl-2-((2-((R)-4-isopropyl-2-oxoimidazolidin-1-yl)-2-(methylcarbamoyl)-2,3-dihydro-1H-inden-5-yl)amino)-2-oxoethyl)-1-methyl-1H-pyrazole-5-carboxamide]: 11.6 nM and 11 nM.
The matching figures for `Cc1nonc1C(=O)N[C@H](C(=O)Nc1ccc2c(c1)CC(C(=O)Nc1ccccc1)(N1C[C@@H](C(C)C)NC1=O)C2)C(C1CC1)C1CC1` (stereo partly drawn) [Example 234, N-((2S)-1,1-dicyclopropyl-3-((2-((R)-4-isopropyl-2-oxoimidazolidin-1-yl)-2-(phenylcarbamoyl)-2,3-dihydro-1H-inden-5-yl)amino)-3-oxopropan-2-yl)-4-methyl-1,2,5-oxadiazole-3-carboxamide]: 207 nM and 340 nM.
On to `CNC(=O)C1(N2CC(C)(C(F)(F)F)CNC2=O)Cc2ccc(NC(=O)[C@@H](NC(=O)c3ccnn3C)C3CCCCC3)cc2C1` (stereo partly drawn) [Example 179, N-((1S)-1-cyclohexyl-2-((2-(5-methyl-2-oxo-5-(trifluoromethyl)tetrahydropyrimidin-1(2H)-yl)-2-(methylcarbamoyl)-2,3-dihydro-1H-inden-5-yl)amino)-2-oxoethyl)-1-methyl-1H-pyrazole-5-carboxamide], for which the IC50 worked out at 51.6 nM in test [1] and 10.9 nM in test [2].
In the case of `Cc1nonc1C(=O)N[C@H](C(=O)Nc1ccc2c(c1)CC(C(O)C(F)(F)F)(N1CC(C(F)(F)F)NC1=O)C2)C(C1CC1)C1CC1` (stereo partly drawn) [Example 270, N-((2S)-1,1-dicyclopropyl-3-oxo-3-((2-(2-oxo-4-(trifluoromethyl)imidazolidin-1-yl)-2-(2,2,2-trifluoro-1-hydroxyethyl)-2,3-dihydro-1H-inden-5-yl)amino)propan-2-yl)-4-methyl-1,2,5-oxadiazole-3-carboxamide], the IC50 in test [1] came to 350 nM; in test [2], 200 nM.
The matching figures for `CNC(=O)C1(N2CC(C)NC2=O)Cc2ccc(NC(=O)[C@@H](NC(=O)c3ccnn3C)C3CCCCC3)cc2C1` (stereo partly drawn) [Example 1, N-((1S)-1-cyclohexyl-2-((2-(4-methyl-2-oxoimidazolidin-1-yl)-2-(methylcarbamoyl)-2,3-dihydro-1H-inden-5-yl)amino)-2-oxoethyl)-1-methyl-1H-pyrazole-5-carboxamide]: 898 nM and 379 nM.
The matching figures for `CC1CN(C2(C(=O)O)Cc3ccc(NC(=O)[C@@H](NC(=O)c4ccnn4C)C4CCCCC4)cc3C2)C(=O)N1` (stereo partly drawn) [Example 23, 5-((S)-2-cyclohexyl-2-(1-methyl-1H-pyrazole-5-carboxamido)acetamido)-2-(4-methyl-2-oxoimidazolidin-1-yl)-2,3-dihydro-1H-indene-2-carboxylic acid]: 3660 nM and 640 nM.
For `Cc1ccc(NC(=O)C2(N3CC4(CC4)CNC3=O)Cc3ccc(NC(=O)[C@@H](NC(=O)c4nonc4C)C4CCC(F)(F)CC4)cc3C2)cc1` (stereo partly drawn) [Example 221, N-((1S)-1-(4,4-difluorocyclohexyl)-2-oxo-2-((2-(6-oxo-5,7-diazaspiro[2.5]octan-5-yl)-2-(p-tolylcarbamoyl)-2,3-dihydro-1H-inden-5-yl)amino)ethyl)-4-methyl-1,2,5-oxadiazole-3-carboxamide] the same measures were 111 nM and 47.8 nM.
On to `[2H]C([2H])([2H])NC(=O)C1(N2C[C@@H](C(C)C)NC2=O)Cc2ccc(NC(=O)[C@@H](NC(=O)c3ccnn3C)C3CCCCCC3)cc2C1` (stereo partly drawn) [Example 82, N-((1S)-1-cycloheptyl-2-((2-((R)-4-isopropyl-2-oxoimidazolidin-1-yl)-2-((methyl-d3)carbamoyl)-2,3-dihydro-1H-inden-5-yl)amino)-2-oxoethyl)-1-methyl-1H-pyrazole-5-carboxamide], for which the results for the IC50 in test [1] and in test [2] were 156 nM and 32 nM, respectively.
For `CNC(=O)C1(N2CC3(CC3)CNC2=O)Cc2ccc(NC(=O)[C@@H](NC(=O)c3ccnn3C(C)C)C(C3CC3)C3CC3)cc2C1` (stereo partly drawn) [Example 115, N-((2S)-1,1-dicyclopropyl-3-((2-(methylcarbamoyl)-2-(6-oxo-5,7-diazaspiro[2.5]octan-5-yl)-2,3-dihydro-1H-inden-5-yl)amino)-3-oxopropan-2-yl)-1-isopropyl-1H-pyrazole-5-carboxamide] the same measures were 72.4 nM and 258 nM.
The matching figures for `CC(C)[C@@H]1CN(C2(C(=O)NC(CO)C3CCC3)Cc3ccc(NC(=O)[C@@H](NC(=O)c4ccnn4C)C4CCCCC4)cc3C2)C(=O)N1` (stereo partly drawn) [Example 86, N-((1S)-2-((2-((1-cyclobutyl-2-hydroxyethyl)carbamoyl)-2-((R)-4-isopropyl-2-oxoimidazolidin-1-yl)-2,3-dihydro-1H-inden-5-yl)amino)-1-cyclohexyl-2-oxoethyl)-1-methyl-1H-pyrazole-5-carboxamide]: 23.5 nM and 22 nM.
The matching figures for `CNC(=O)C1(N2C[C@@H](C(C)C)NC2=O)Cc2ccc(NC(=O)[C@@H](NC(=O)c3cccc(OC(C)C)c3)C3CCCCC3)cc2C1` (stereo partly drawn) [Example 84, 5-((S)-2-cyclohexyl-2-(3-isopropoxybenzamido)acetamido)-2-((R)-4-isopropyl-2-oxoimidazolidin-1-yl)-N-methyl-2,3-dihydro-1H-indene-2-carboxamide]: 94.4 nM and 37 nM.
As to `Cc1nonc1C(=O)N[C@H](C(=O)Nc1ccc2c(c1)OC(CN1C[C@@H](C(F)(F)F)NC1=O)C2)C(C1CC1)C1CC1` (stereo partly drawn) [Example 255, N-((2S)-1,1-dicyclopropyl-3-oxo-3-((2-(((S)-2-oxo-4-(trifluoromethyl)imidazolidin-1-yl)methyl)-2,3-dihydrobenzofuran-6-yl)amino)propan-2-yl)-4-methyl-1,2,5-oxadiazole-3-carboxamide], the IC50 in test [1] came out at 666 nM; in test [2], 165 nM.
Consider `CCC1CNC(=O)N(C2(C(=O)NC)Cc3ccc(NC(=O)[C@@H](NC(=O)c4ccnn4C)C4CCCCC4)cc3C2)C1` (stereo partly drawn) [Example 75, N-((1S)-1-cyclohexyl-2-((2-(5-ethyl-2-oxotetrahydropyrimidin-1(2H)-yl)-2-(methylcarbamoyl)-2,3-dihydro-1H-inden-5-yl)amino)-2-oxoethyl)-1-methyl-1H-pyrazole-5-carboxamide], for which the IC50 in test [1] amounted to 186 nM; in test [2] it was 33 nM.
The matching figures for `CNC(=O)C1(N2CC(C)NC2=O)Cc2cc3nc([C@@H](NC(=O)c4nonc4C)C4CCCCC4)[nH]c3cc2C1` (stereo partly drawn) [Example 14, N-((1S)-cyclohexyl(6-(4-methyl-2-oxoimidazolidin-1-yl)-6-(methylcarbamoyl)-1,5,6,7-tetrahydroindeno[5,6-d]imidazol-2-yl)methyl)-4-methyl-1,2,5-oxadiazole-3-carboxamide]: 300 nM and 150 nM.
The matching figures for `Cn1nccc1C(=O)N[C@H](C(=O)Nc1ccc2c(c1)CC(C(O)C(F)(F)F)(N1CC3(CC3)CNC1=O)C2)C1CCCCC1` (stereo partly drawn) [Example 194, N-((1S)-1-cyclohexyl-2-oxo-2-((2-(6-oxo-5,7-diazaspiro[2.5]octan-5-yl)-2-(2,2,2-trifluoro-1-hydroxyethyl)-2,3-dihydro-1H-inden-5-yl)amino)ethyl)-1-methyl-1H-pyrazole-5-carboxamide]: 21 nM and 33.8 nM.
For `Cc1nonc1C(=O)NC(C(=O)Nc1ccc2c(c1)CC(N1C[C@@H](C(F)(F)F)NC1=O)C2)C1CCc2cc(Cl)ccc2C1` (stereo partly drawn) [Example 208, N-(1-(6-chloro-1,2,3,4-tetrahydronaphthalen-2-yl)-2-oxo-2-((2-((S)-2-oxo-4-(trifluoromethyl)imidazolidin-1-yl)-2,3-dihydro-1H-inden-5-yl)amino)ethyl)-4-methyl-1,2,5-oxadiazole-3-carboxamide] the same measures were 2170 nM and 718 nM.
`Cc1nonc1C(=O)N[C@H](C(=O)Nc1ccc2c(c1)CC(N1C[C@@H](C(C)C)NC1=O)C2)C(C1CC1)C1CC1` (stereo partly drawn) [Example 231, N-((2S)-1,1-dicyclopropyl-3-((2-((R)-4-isopropyl-2-oxoimidazolidin-1-yl)-2,3-dihydro-1H-inden-5-yl)amino)-3-oxopropan-2-yl)-4-methyl-1,2,5-oxadiazole-3-carboxamide]: the IC50 in test [1] is 1970 nM; in test [2], 1080 nM.
